Here are results for 22 molecules from PubChem BioAssay (NCI).

Molecules are shown by their SMILES.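 How tested: cells in 96-well plates exposed to compound for 48 hours at five concentrations. Here, GI50 denotes the concentration required for 50% inhibition of growth. The concentration for full growth arrest is given as TGI.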

Test in all cases: growth of human tumour cells (NCI), 48 h
Test [1] deals with SF-295 CNS.
For test [2], the system named is OVCAR-4 ovarian.
Test [3] deals with OVCAR-8 ovarian.
The subject of test [4] is SW-620 colon.
In test [5] the test system is TK-10 renal.
For test [6], the system named is SF-539 CNS.
Test [7] deals with ACHN renal.
Test [8] relates to NCI-H226 lung.
Test [9] has as its system HCC-2998 colon.
Test [10] has as its system SK-MEL-5 melanoma.

For `O=C1C(=Cc2ccc(F)cc2)C(=O)c2ccccc21`, the TGI in test [1], in test [2], in [3], in [4], in [5] and in test [6] was over 100 µM in each case. For the same molecule, the TGI in [7], in [8], in [9] and in test [10] was over 100 µM in each case.
For the molecule `Cc1c2ccccc2c(C)n2c1nc1cc(Cl)c(Cl)cc12`, the GI50 in test [1] was over 100 µM; in test [2] it was 22.4 µM; in [3] it was over 100 µM; in [4], 74.1 µM; in [5], over 100 µM; in [6], over 100 µM. Moreover, the GI50 in test [7] was 26 µM; in [8], over 100 µM; in [9], over 100 µM; in test [10], 25.7 µM. For the same molecule, the TGI in test [1], in [2], in test [3], in [4], in test [5] and in [6] was over 100 µM throughout. The TGI in test [7], in [8], in [9] and in test [10] was over 100 µM each time.
In the case of `CC(=O)[O][Hg][c]1s[c]([Hg][O]C(C)=O)[c]([Hg][O]C(C)=O)[c]1[Hg][O]C(C)=O`, the GI50 was 13.5 µM in [1]; 12.7 µM in [2]; 2.93 µM in test [3]; 6.51 µM in [4]; 19.3 µM in test [7]; over 100 µM in test [8]. Further, the GI50 was 14.6 µM in test [9] and 1.24 µM in test [10]. In addition, the TGI in test [1] is 40.1 µM; in [2], 87.7 µM; in [3] it was over 100 µM; in test [7], over 100 µM; in [8], over 100 µM; in test [9], 40.1 µM. Also, the TGI in test [10] worked out at 3.12 µM.
Turning to `CCOC(=O)N(O)c1ccc(/C=C/c2ccccc2)cc1`, the GI50 in [1] was 2.45 µM; in [2] it was 7.21 µM; in [3], 10.9 µM; in test [4], 5.3 µM; in [5], 2 µM; in test [6], 17.1 µM. Also, the GI50 was 8.38 µM in test [7], 0.128 µM in test [8], 7.03 µM in test [9] and 3.85 µM in test [10]. The TGI was 22.1 µM in [1]; over 84.2 µM in test [2]; over 100 µM in test [3]; 25.1 µM in test [4]; 6.75 µM in test [5]; 40.1 µM in test [6]. The TGI in test [7] was over 93.7 µM; in [8], 0.446 µM; in test [9] it was 21.3 µM; in test [10], 14.5 µM.
As for `O=C1CC2OCC=C3CN4CCC5(C(=O)O)C(N1)C2C3CC45` (configuration not stated), the TGI in test [1], in test [2], in test [3], in test [4], in [5] and in test [6] was over 100 µM throughout. Also, the TGI in test [7], in [8], in [9] and in test [10] was over 100 µM in each case.
With `CC[C@@H](C(=O)[C@@H](C)[C@@H](O)[C@H](C)[C@@H]1O[C@@H]([C@@H](CC)C(=O)O)CC[C@@H]1C)[C@H]1O[C@]2(C=C[C@@H](O)[C@]3(CC[C@@](C)([C@H]4CC[C@](O)(CC)[C@H](C)O4)O3)O2)[C@H](C)C[C@@H]1C`, the GI50 was 0.447 µM in [1]; 1.12 µM in [2]; 1.2 µM in [3]; 1.56 µM in test [4]; 0.942 µM in [5]; 0.806 µM in test [6]. Also, the GI50 was 1.39 µM in test [7], 2.07 µM in test [8], 0.166 µM in test [9] and 0.401 µM in test [10]. Further, the TGI in test [1] amounted to 7.71 µM; in [2] it was 34 µM; in test [3], 29.5 µM; in test [4] it was 12.6 µM; in test [5], 17.8 µM; in test [6], 5.27 µM. Besides, the TGI in test [7] stood at 49.2 µM; in [8], 19.6 µM; in test [9], 13 µM; in test [10] it was 1.61 µM.
`CCOc1ccccc1N=Cc1c2ccccc2cc2ccccc12`: the TGI was over 100 µM in test [1]; over 74 µM in [2]; 70 µM in test [3]; over 100 µM in test [4]; 67.2 µM in [5]; over 71.4 µM in [6]. The TGI in test [7] is over 93.3 µM; in test [8], over 100 µM; in [9], 44.3 µM; in test [10] it was over 83.8 µM.
For the molecule `Cc1ccc(C)c(NC(=O)C(=O)Nn2c(=S)[nH]c3ccccc3c2=O)c1`, the TGI in test [1], in test [2], in test [3], in test [4], in [5] and in [6] was over 100 µM throughout. Moreover, the TGI in test [7], in test [8], in test [9] and in test [10] was over 100 µM each time.
Consider `C=Cc1cc(OC)c2c(c1)c(=O)oc1c2cc(OC)c2c(O)ccc(C3OC(C(C)O)C(O)C3O)c21` (configuration not stated), for which the GI50 in test [1] is 0.00366 µM; in test [2], 0.053 µM; in test [3] it was 0.0114 µM; in test [4] it was 0.0117 µM; in [5] it was 0.0223 µM; in test [6] it was 0.0146 µM. For the same molecule, the GI50 in [8] is 0.023 µM; in [9], 0.013 µM; in test [10], 0.00775 µM. Further, the TGI is 0.0431 µM in test [1]; 0.703 µM in [2]; 0.212 µM in test [3]; 0.084 µM in [4]; 0.318 µM in test [5]; 0.0527 µM in test [6]. Moreover, the TGI in test [8] is 0.099 µM; in test [9], 0.0422 µM; in test [10] it was 0.0555 µM.
Turning to `COC1CC(n2cc(F)c(N)nc2=O)OC1CO` (configuration not stated), the TGI in test [1], in [2], in test [3], in [4], in [5] and in [7] was over 100 µM in each case. The TGI in [8], in test [9] and in [10] was over 100 µM in each case.
For `N#CNC1=NCCC(=O)N1CCc1c[nH]c2ccccc12`, the TGI in test [1], in [2], in test [3], in test [4], in test [5] and in test [6] was over 100 µM in each case. Further, the TGI in test [8], in [9] and in test [10] was over 100 µM each time.
For `CC(CC(=O)Nc1ccc(NC(=O)CC(C)N=NC(N)=O)cc1)N=NC(N)=O` (configuration not stated), the TGI in [1], in test [2], in [3], in test [5], in test [6] and in test [7] was over 100 µM throughout. Moreover, the TGI in test [8], in [9] and in [10] was over 100 µM each time.
`CCCCCC/C(CC(=O)CCC(=O)NCCc1ccccc1)=N\Nc1ccc([N+](=O)[O-])cc1[N+](=O)[O-]`: the TGI in [1], in test [3], in [4], in test [5], in [6] and in test [7] was over 100 µM each time. Besides, the TGI in [8], in test [9] and in test [10] was over 100 µM in each case.
In the case of `C/C(=N\Nc1n[nH]c(=S)n1N)c1c(O)cc(C)oc1=O`, the TGI in [1], in test [2], in test [3], in test [4], in [5] and in test [6] was over 100 µM in each case. Besides, the TGI in [7], in [8] and in test [9] was over 100 µM in each case.
In the case of `CCOC(=O)C(=O)Nc1nc2ccc(C)cc2s1`, the TGI in test [2], in test [3], in [4], in test [6], in [7] and in test [8] was over 100 µM throughout. Also, the TGI in test [9] and in test [10] was over 100 µM in each case.
Consider `COC(=O)C(/C(=N\O)C(=O)Nc1ccc(Br)cc1)c1nc2ccccc2[nH]c1=O` (configuration not stated), for which the TGI in [1] is over 100 µM; in [2] it was over 100 µM; in test [3] it was over 100 µM; in [6] it was 58.4 µM; in [7] it was over 100 µM; in [8], 71.9 µM. Moreover, the TGI in test [9] is over 100 µM; in test [10] it was 68.2 µM.
Consider `O=C(CCc1cc(-c2ccc(F)cc2)n[nH]1)N(Cc1ccccc1)Cc1ccccc1`, for which the TGI in [1], in test [3], in test [4], in test [5], in [6] and in [7] was over 100 µM in each case. In addition, the TGI in [8], in [9] and in [10] was over 100 µM throughout.
As for `Cc1nc(-n2nc(-c3ccccc3)cc2-c2ccccc2)sc1C(=O)CC(=O)C(=O)Nc1ccc(O)cc1`, the TGI in test [1], in [2], in test [3], in test [4], in test [5] and in test [6] was over 100 µM in each case. For the same molecule, the TGI in test [7], in test [8] and in test [9] was over 100 µM throughout.
On to `C[C@H]1CCC2C(OC(=O)[C@@H]2CN(C)C)[C@]2(C)C(=O)C=CC12O` (some centres not stated), for which the TGI in test [1] was 31.1 µM; in [2] it was 33.4 µM; in test [4], 10.2 µM; in test [5] it was 18.4 µM; in test [6] it was 12 µM; in [7] it was 5.74 µM. The TGI in [8] was over 38.1 µM; in test [9], 18.2 µM; in [10] it was 20.3 µM.
As for `CN(C)Cc1cc(C(C)(C)C)cc(CN(C)C)c1O`, the TGI in test [1], in [2], in test [3], in test [4], in test [5] and in [6] was over 100 µM in each case. For the same molecule, the results for the TGI in test [7], in [9] and in [10] were over 100 µM, 52.2 µM and over 100 µM, respectively.
As for `COc1ccc(F)cc1-c1ccnc2[nH]c(C3=CCN(C4CCC(CC(=O)O)CC4)CC3)cc12` (configuration not stated), the GI50 in test [1] was 0.286 µM; in test [2], 0.282 µM; in test [3], 0.288 µM; in [4], 0.123 µM; in [5], 0.344 µM; in test [6] it was 0.0546 µM. Further, the GI50 was 0.243 µM in test [7], 0.299 µM in test [9] and 0.121 µM in [10]. Also, the TGI in test [1] is 15.4 µM; in test [2], 6.44 µM; in test [3] it was over 100 µM; in test [4], 18.3 µM; in [5] it was over 100 µM; in test [6] it was 0.335 µM. The values for the TGI in test [7], in test [9] and in [10] were over 100 µM, over 100 µM and 0.389 µM, respectively.
In the case of `CCOC(=O)CC(C)C1(C=O)CCCCC1=O` (configuration not stated), the TGI in test [1], in test [2], in [3], in test [5], in test [6] and in test [7] was over 100 µM each time. Moreover, the TGI in test [8], in [9] and in test [10] was over 100 µM throughout.
